In patent publication US20250115569A1, “SULFONAMIDE COMPOUNDS FOR THE TREATMENT OF NEUROLOGICAL CONDITIONS” (LARIO THERAPEUTICS LIMITED, priority 2021, published 2025):

The compounds below were run on Human Cav2.3 channel (assay: Human Cav2.3 channel calcium-influx assay). Conditions: Fluo8 fluorescence, HEK-293 T-Rex/Kir2.1/Cav2.3e cells, without pluronic acid.
Format: cell-based
Experimental: HEK-293 T-Rex cells were transfected with pcDNA3.1-Kir2.1 to generate a stable cell line. After antibiotic selection, the obtained stable pools were analysed using FLIPR^TETRA (membrane potential assay), and a limiting dilution was performed and a HEK-293 T-Rex/Kir2.1 clone was selected. The clone was transfected with pcDNA3.1-Cav2.3e and pBud-Cav-β4-α2δ1 to generate a stable cell line where the Cav2.3e expression is inducible. After antibiotic selection, functional clone pool analysis and two successive limiting dilutions, the final clone underwent a qPCR analysis and a biophysical and pharmacological validation using patch-clamp.
A compound plate, containing 10 test compounds in eight-points dose response with n=4, was prepared. Test compounds dose response curves were prepared in automated fashion in 100% DMSO at CyBio Felix and starting from a stock solution in 100% DMSO; a defined volume was serially moved into destination wells pre-filled with the desired DMSO volume; stock solution concentration volumes were dependent on the final compounds concentrations to be tested and the final DMSO content used in the assay. For the assay test compounds dose response curves ranged from 30 μM and half log dilution with 0.3% final DMSO. In order to obtain the 8-points dose response curve all the concentrations were created by starting from a 10 mM DMSO stock solution and then moving 9.5 μL into a destination well pre-filled with 20.5 μL of 100% DMSO and repeating this step seven times. This initial step was done into 96 MTP plates, 10 compounds/plate. One 384 MTP was then reformatted to contain all the 10 compounds at 8 concentrations, quadruplicate data points. This so obtained 384 MTP compound plate served as source plate in a “mother to child” process with a CyBi®-Well dispenser in which 0.7 μL of compounds were moved into a destination plate pre-filled with 57.6 μL of Tyrode's buffer 0 mM K+, thus obtaining 4× concentrated compounds solution. In columns 1-2 and 23-24 the control wells were added. Both “source” compound plate and “destination” compound plate were barcoded and a relationship between the two plates was thus generated.
The day before the experiment, cells were detached by gentle wash with DPBS, followed by 5 min incubation at 37° C. with Trypsin solution. Detached cells were diluted with OptiMEM+Doxycycline at 0.2 μg/mL, counted and plated in Poly-D-Lysine coated black/clear bottom (15.000 c/well in 20 μl/well) by the use of a MATRIX WellMate dispenser. Plates were placed into a humidified incubator at 37° C. with 5% CO2 until the experimental day. 24 h after seeding 10 μL/well of 1.5× Fluo8 NW dye solution prepared in Tyrode's buffer 0 mM K* were added on top of the seeding medium. Cell plates were incubated for 40-60 min at RT in the dark. We then Injected off-line 10 μL/well of test compounds and controls 4× concentrated in Tyrode's Buffer 0 mM K+ with the CyBi®-Well instrument. Cell plates were incubated 3 minutes at RT. Finally, we injected 20 μL/well of 3× concentrated activator solution (K20-Na130-Ca2 buffer: 20 mM KCl, 130 mM NaCl, 2 mM CaCl2, 10 mM HEPES, 10 mM Glucose, final concentrations, prepared starting from “K0-Na150-Ca2” and “K150-Na0-Ca2” buffers) at FDSS7000EX instrument and read emitted fluorescence for 130 seconds.
Data analysis was performed with Genedata Screener® software and reported compounds activity as % effect in relation to the normalization standards. The Kinetic Response Value (KRV) is calculated as follows:
KRV=Maximal fluorescence recorded from second 5 to second 130 minus baseline fluorescence, computed as average from second 1 to second 2, of the kinetic trace. The KRV was normalized versus Neutral Controls and Inhibitor Controls in order to obtain the Activity[%] for each well. […] Therefore, the compound activity values were scaled (based on the two references) to a common range (two-point normalization). […]

| Compound | Cav2.3 (pIC50) |
| --- | --- |
| CCN([C@H](c1ccc(F)cc1)C(F)(F)F)S(=O)(=O)c1csc(C#N)c1 (stereo in doubt) [Example 43, 5-Cyano-N-ethyl-N-(2,2,2-trifluoro-1-(4-fluorophenyl)ethyl)thiophene-3-sulfonamide] | 6.69 |
| CCN([C@@H](c1ccc(F)cc1)C(F)(F)F)S(=O)(=O)c1csc(C#N)c1 (stereo in doubt) [Example 44, 5-cyano-N-ethyl-N-(2,2,2-trifluoro-1-(4-fluorophenyl)ethyl)thiophene-3-sulfonamide] | 5.23 |
| CN(C(c1ccc(F)cc1)C(F)F)S(=O)(=O)c1ccc(Cl)s1 (centres unmarked) [Example 23, 5-chloro-N-(2,2-difluoro-1-(4-fluorophenyl)ethyl)-N-methylthiophene-2-sulfonamide] | 5.15 |
| CN(C)C(=O)c1ccc(S(=O)(=O)NC(c2ccc(F)cc2)C(F)(F)F)s1 (centres unmarked) [Example 24, N,N-dimethyl-5-(N-(2,2,2-trifluoro-1-(4-fluorophenyl)ethyl)sulfamoyl)thiophene-2-carboxamide] | 4.89 |
| CCN(C(c1ccc(F)cc1)C(F)(F)F)S(=O)(=O)c1cncc(C#N)c1 (centres unmarked) [Example 26, 5-cyano-N-ethyl-N-(2,2,2-trifluoro-1-(4-fluorophenyl)ethyl)pyridine-3-sulfonamide] | 7.49 |
| CCN(C(c1ccc(F)cc1)C(F)(F)F)S(=O)(=O)c1ccc2c(c1)COCC2 (centres unmarked) [Example 29, N-ethyl-N-(2,2,2-trifluoro-1-(4-fluorophenyl)ethyl)isochromane-7-sulfonamide] | 6.18 |
| CCN(C(c1ccc(F)cc1)C(F)(F)F)S(=O)(=O)c1cccc(C#N)n1 (centres unmarked) [Example 30, 6-cyano-N-ethyl-N-(2,2,2-trifluoro-1-(4-fluorophenyl)ethyl)pyridine-2-sulfonamide] | 6.62 |
| CCN([C@H](c1ccc(F)cc1)C(F)(F)F)S(=O)(=O)c1cccc(C)n1 [Example 33, (R)—N-ethyl-6-methyl-N-(2,2,2-trifluoro-1-(4-fluorophenyl)ethyl)pyridine-2-sulfonamide] | 6.30 |
| CCN([C@@H](c1ccc(F)cc1)C(F)(F)F)S(=O)(=O)c1cncc(C#N)c1 [Example 34, (S)-5-cyano-N-ethyl-N-(2,2,2-trifluoro-1-(4-fluorophenyl)ethyl)pyridine-3-sulfonamide] | 6.20 |
| CCN(C(c1ccc(F)cc1)C(F)(F)F)S(=O)(=O)c1ccc2c(c1)COC2 (centres unmarked) [Example 36, N-ethyl-N-(2,2,2-trifluoro-1-(4-fluorophenyl)ethyl)-1,3-dihydroisobenzofuran-5-sulfonamide] | 6.58 |
| CCN([C@@H](c1ccc(F)cc1)C(F)(F)F)S(=O)(=O)c1ccc2c(c1)COC2 [Example 37, (S)—N-ethyl-N-(2,2,2-trifluoro-1-(4-fluorophenyl)ethyl)-1,3-dihydroisobenzofuran-5-sulfonamide] | 4.87 |
| CCN([C@H](c1ccc(F)cc1)C(F)(F)F)S(=O)(=O)c1ccc2c(c1)COC2 [Example 38, (R)—N-ethyl-N-(2,2,2-trifluoro-1-(4-fluorophenyl)ethyl)-1,3-dihydroisobenzofuran-5-sulfonamide] | 6.91 |
| CCN(C(c1ccc(F)cc1)C(F)(F)F)S(=O)(=O)c1ccc2c(c1)OCC2 (centres unmarked) [Example 39, N-ethyl-N-(2,2,2-trifluoro-1-(4-fluorophenyl)ethyl)-2,3-dihydrobenzofuran-6-sulfonamide] | 5.82 |
| CCN([C@H](c1ccc(F)cc1)C(F)(F)F)S(=O)(=O)c1ccc2c(c1)OCC2 [Example 40, (R)—N-ethyl-N-(2,2,2-trifluoro-1-(4-fluorophenyl)ethyl)-2,3-dihydrobenzofuran-6-sulfonamide] | 5.62 |
| CCN([C@@H](c1ccc(F)cc1)C(F)(F)F)S(=O)(=O)c1ccc2c(c1)OCC2 [Example 41, (S)—N-ethyl-N-(2,2,2-trifluoro-1-(4-fluorophenyl)ethyl)-2,3-dihydrobenzofuran-6-sulfonamide] | 4.72 |
| CCN(C(c1ccc(F)cc1)C(F)(F)F)S(=O)(=O)c1csc(C#N)c1 (centres unmarked) [Example 42, 5-Cyano-N-ethyl-N-(2,2,2-trifluoro-1-(4-fluorophenyl)ethyl)thiophene-3-sulfonamide] | 6.90 |
| CCN(C(c1ccc(F)cc1)C(F)(F)F)S(=O)(=O)c1sc(C#N)cc1C (centres unmarked) [Example 45, 5-Cyano-N-ethyl-3-methyl-N-(2,2,2-trifluoro-1-(4-fluorophenyl)ethyl)thiophene-2-sulfonamide] | 6.07 |
| CCN(C(c1ccc(F)cc1)C(F)(F)F)S(=O)(=O)c1cnc(C)c(C#N)c1 (centres unmarked) [Example 55, 5-cyano-N-ethyl-6-methyl-N-(2,2,2-trifluoro-1-(4-fluorophenyl)ethyl)pyridine-3-sulfonamide] | 6.33 |

Now from value to compound:

| Cav2.3 (pIC50) | Compound |
| --- | --- |
| 6.31 | CCN(C(c1ccc(F)cc1)C(F)(F)F)S(=O)(=O)c1ccc(C#N)s1 (centres unmarked) [Example 3, 5-cyano-N-ethyl-N-(2,2,2-trifluoro-1-(4-fluorophenyl)ethyl)thiophene-2-sulfonamide] |
| 6.22 | CN([C@H](c1ccc(F)cc1)C(F)(F)F)S(=O)(=O)c1ccc(C#N)s1 [Example 6, (R)-5-cyano-N-methyl-N-(2,2,2-trifluoro-1-(4-fluorophenyl)ethyl)thiophene-2-sulfonamide] |
| 5.44 | CN([C@@H](c1ccc(F)cc1)C(F)(F)F)S(=O)(=O)c1ccc(C#N)s1 [Example 7, (S)-5-cyano-N-methyl-N-(2,2,2-trifluoro-1-(4-fluorophenyl)ethyl)thiophene-2-sulfonamide] |
| 5.53 | CCN(C(c1ccc(F)cc1)C(F)(F)F)S(=O)(=O)c1ccc(C)s1 (centres unmarked) [Example 8, N-ethyl-5-methyl-N-(2,2,2-trifluoro-1-(4-fluorophenyl)ethyl)thiophene-2-sulfonamide] |
| 5.66 | CCN([C@H](c1ccc(F)cc1)C(F)(F)F)S(=O)(=O)c1ccc(C)s1 [Example 10, (R)—N-ethyl-5-methyl-N-(2,2,2-trifluoro-1-(4-fluorophenyl)ethyl)thiophene-2-sulfonamide] |
| 5.22 | Cc1ccc(S(=O)(=O)N(C)C(c2ccc(F)cc2)C(F)(F)F)s1 (centres unmarked) [Example 11, N,5-dimethyl-N-(2,2,2-trifluoro-1-(4-fluorophenyl)ethyl)thiophene-2-sulfonamide] |
| 5.00 | Cc1ccc(S(=O)(=O)N(C)[C@@H](c2ccc(F)cc2)C(F)(F)F)s1 [Example 12, (S)—N,5-dimethyl-N-(2,2,2-trifluoro-1-(4-fluorophenyl)ethyl)thiophene-2-sulfonamide] |
| 5.64 | CCN(C(c1ccc(F)cc1)C(F)(F)F)S(=O)(=O)c1ccc(F)s1 (centres unmarked) [Example 14, N-ethyl-5-fluoro-N-(2,2,2-trifluoro-1-(4-fluorophenyl)ethyl)thiophene-2-sulfonamide] |
| 4.94 | CCN([C@@H](c1ccc(F)cc1)C(F)(F)F)S(=O)(=O)c1ccc(F)s1 [Example 15, (S)—N-ethyl-5-fluoro-N-(2,2,2-trifluoro-1-(4-fluorophenyl)ethyl)thiophene-2-sulfonamide] |
| 5.78 | CCN([C@H](c1ccc(F)cc1)C(F)(F)F)S(=O)(=O)c1ccc(F)s1 [Example 16, (R)—N-ethyl-5-fluoro-N-(2,2,2-trifluoro-1-(4-fluorophenyl)ethyl)thiophene-2-sulfonamide] |
| 6.43 | CCN(C(c1ccc(F)cc1)C(F)(F)F)S(=O)(=O)c1cc(C)c(Cl)s1 (centres unmarked) [Example 31, 5-chloro-N-ethyl-4-methyl-N-(2,2,2-trifluoro-1-(4-fluorophenyl)ethyl)thiophene-2-sulfonamide] |
